Each structure is given as a SMILES string.

Drawing on paper PMC7519686, “Engineering and application of a biosensor with focused ligand specificity” (Nature Communications, 2020), this text covers Kd for three compounds.

Common to all, as to assay type: binding
Test [1] addresses T1, LysG (Corynebacterium glutamicum, UniProt P94632).
T1 sequence (P94632 1-290): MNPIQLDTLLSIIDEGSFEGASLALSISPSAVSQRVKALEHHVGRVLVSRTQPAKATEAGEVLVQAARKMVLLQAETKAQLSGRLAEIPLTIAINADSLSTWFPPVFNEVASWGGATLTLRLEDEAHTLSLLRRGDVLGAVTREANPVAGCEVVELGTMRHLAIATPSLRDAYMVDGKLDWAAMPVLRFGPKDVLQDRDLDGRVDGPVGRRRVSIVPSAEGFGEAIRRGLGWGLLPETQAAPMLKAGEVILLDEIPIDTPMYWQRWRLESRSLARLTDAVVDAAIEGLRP
Description: ITC with purified protein.

Test [2] deals with T2, LysG-A219L (Corynebacterium glutamicum, UniProt P94632, A219L). Nature of the test: ITC with purified protein.
For test [3], the target named is T1, LysG. Description: ITC with purified protein (fixed stoichiometry of two ligands per tetramer).
In test [4] the target is T2, LysG-A219L. The test is described as above.
Test [5] addresses T1, LysG. Nature of the test: X-ray co-crystal structure ([…] Å) and ITC. Also on record: full-length LysG.

Regarding `N[C@@H](Cc1c[nH]cn1)C(=O)O` [L-histidine], the figures for the Kd at LysG [1] and on LysG-A219L [2] were 16 µM and 20.7 µM, respectively.

`NCCCC[C@H](N)C(=O)O` [L-lysine] registered a Kd at LysG [3] of 3290 µM.

Consider `N=C(N)NCCC[C@H](N)C(=O)O` [L-arginine], for which the equilibrium dissociation constant (Kd) came to 9620 µM at LysG-A219L [4] and 1150 µM at LysG [5].
